Assay results published in patent publication US10570131B2, “Heterocyclic compounds and their use in preventing or treating bacterial infections” (MUTABILIS, priority 2015, dated 2020).

What was measured:
Format in all cases: cell-based
P. aeruginosa UFR48 = test: MIC of ceftazidime alone and in combination with compounds (synergy), broth microdilution; conditions: Pseudomonas aeruginosa, UFR48, read-out: MIC of CAZ
Experimental: (§1) Compounds of the present invention were assessed against genotyped bacterial strains alone or in combination with the β-lactam ceftazidime (CAZ). […] Briefly, compounds alone according to the invention were prepared in DMSO and spotted (2 μL each) on sterile polystyrene plates (Corning, 3788). […] Log phase bacterial suspensions were adjusted to a final density of 5×10^5 cfu/mL in cation-adjusted Mueller-Hinton broth (Becton-Dickinson) and added to each well (98 μL). Microplates were incubated for 16-20 h at 35° C. in ambient air. The MIC of the compounds was defined as the lowest concentration of said compounds that prevented bacterial growth as read by visual inspection.

K. pneumoniae 6299 [1] = test: as above
Experimental: as §1

E. cloacae P99 [2] = test: as above; conditions: MIC of ceftazidime with compound fixed at 4 μg/mL; strain P99 (AmpC)
K. pneumoniae BAA-1898 [3] = test: microbe, parasite or virus in culture; conditions: strain BAA-1898 (TEM-1, SHV-11, SHV-12, KPC-2)
Experimental: as §1

P. aeruginosa CIP105250 [4] = test: microbe, parasite or virus in culture; conditions: strain CIP105250 (OXA-15)
Experimental: as §1

K. pneumoniae 6299 [5] = test: microbe, parasite or virus in culture; conditions: strain 6299 (TEM-1, SHV-11, OXA-163)
Experimental: as §1

E. coli 131119 = test: microbe, parasite or virus in culture; conditions: strain 131119 (TEM-1, OXA-48)
Experimental: as §1

K. pneumoniae BAA-1898 [6] = test: MIC of ceftazidime alone and in combination with compounds (synergy), broth microdilution; conditions: MIC of ceftazidime with compound fixed at 4 μg/mL; strain BAA-1898 (TEM-1, SHV-11, SHV-12, KPC-2)
Experimental: as §1

P. aeruginosa CIP107051 [7] = test: as above; conditions: MIC of ceftazidime with compound fixed at 4 μg/mL; strain CIP107051 (TEM-24)
Experimental: as §1

P. aeruginosa CIP105250 [8] = test: as above; conditions: MIC of ceftazidime with compound fixed at 4 μg/mL; strain CIP105250 (OXA-15)
Experimental: as §1

E. cloacae 260508 = test: MIC of compounds alone, broth microdilution; conditions: strain 260508 (TEM-1, CTX-M-15)
Experimental: as §1

E. cloacae P99 [9] = test: MIC of compounds alone, broth microdilution; conditions: strain P99 (AmpC)
Experimental: as §1

E. coli UFR61O = test: MIC of compounds alone, broth microdilution; conditions: strain UFR61O (TEM-1, KPC-2)
Experimental: as §1

K. pneumoniae 160143 = test: MIC of compounds alone, broth microdilution; conditions: strain 160143 (TEM-1, SHV-1, CTX-M-15, KPC-2, OXA-1)
Experimental: as §1

P. aeruginosa CIP107051 [10] = test: MIC of compounds alone, broth microdilution; conditions: strain CIP107051 (TEM-24)
Experimental: as §1

K. pneumoniae UFR24 = test: MIC of compounds alone, broth microdilution; conditions: strain UFR24 (TEM-1, SHV-2, SHV-11, OXA-1, OXA-48, OXA-47)
Experimental: as §1

E. coli RGN238 = test: MIC of compounds alone, broth microdilution; conditions: strain RGN238 (OXA-1)
Experimental: as §1

E. coli UFR18 = test: MIC of compounds alone, broth microdilution; conditions: strain UFR18 (CTX-M-15, OXA-204)
Experimental: as §1

E. coli UFR52 = test: MIC of compounds alone, broth microdilution; conditions: strain UFR52 (TEM-1, SHV-12, IMP-8)
Experimental: as §1

E. coli UFR32 = test: MIC of compounds alone, broth microdilution; conditions: strain UFR32 (TEM-1, VEB-1, OXA-10)
Experimental: as §1

E. coli UFR74 = test: MIC of compounds alone, broth microdilution; conditions: strain UFR74 (SHV-1, DHA-1)
Experimental: as §1

E. cloacae UFR85 = test: MIC of compounds alone, broth microdilution; conditions: strain UFR85 (TEM-1, CTX-M-15, derepressed AmpC)
Experimental: as §1

E. cloacae UFR70 = test: MIC of compounds alone, broth microdilution; conditions: strain UFR70 (TEM-1, CTX-M-15, CMY-2, OXA-1, Porin loss)
Experimental: as §1

C. murliniae 210102 = test: MIC of compounds alone, broth microdilution; conditions: strain 210102 (VIM-4)
Experimental: as §1

K. pneumoniae 200047 = test: MIC of compounds alone, broth microdilution; conditions: strain 200047 (TEM-1, SHV-32, CTX-M-15, OXA-1)
Experimental: as §1

K. oxytoca UFR21 = test: MIC of compounds alone, broth microdilution; conditions: strain UFR21 (TEM-1, CTX-M-15, OXA-48)
Experimental: as §1

E. cloacae UFR38 = test: MIC of compounds alone, broth microdilution; conditions: strain UFR38 (CTX-M-15, NDM-1)
Experimental: as §1

K. pneumoniae UFR77 = test: MIC of compounds alone, broth microdilution; conditions: strain UFR77 (CMY-2)
Experimental: as §1

E. coli 190317 [11] = test: MIC of compounds alone, broth microdilution; conditions: strain 190317 (TEM-1, SHV-12, CTX-M-15, OXA-1)
Experimental: as §1

K. pneumoniae UFR68 = test: MIC of compounds alone, broth microdilution; conditions: strain UFR68 (TEM-1, SHV-11, CTX-M-15, KPC-3)
Experimental: as §1

E. coli 190317 [12] = test: MIC of ceftazidime alone and in combination with compounds (synergy), broth microdilution; conditions: MIC of ceftazidime with compound fixed at 4 μg/mL; strain 190317 (TEM-1, SHV-12, CTX-M-15, OXA-1)

## CC(C)(O/N=C(\C(=O)N[C@@H]1C(=O)N2C(C(=O)[O-])=C(C[n+]3ccccc3)CS[C@H]12)c1csc(N)n1)C(=O)O [CAZ, ceftazidime, reference compound]
P. aeruginosa UFR48
  MIC: 256 µg/mL
K. pneumoniae 6299 [1]; Klebsiella pneumoniae, 6299, read-out: MIC of CAZ
  MIC: 256 µg/mL

## NCCON=C1C[C@@H](C(N)=O)N2C[C@@H]1N(OS(=O)(=O)[O-])C2=O.O=C(O)C(F)(F)F.[Na+] [Example 4, sodium and 2,2,2-trifluoroacetate [(2S, 5S)-4-(2-ammoniumethoxyimino)-2-carbamoyl-7-oxo-1,6-diazabicyclo[3.2.1]octan-6-yl] sulfate]
E. cloacae P99 [2]
  MIC, combination of CAZ and compounds of the invention at 4 μg/mL: 0.25 µg/mL
K. pneumoniae BAA-1898 [3]
  MIC compounds of the invention alone: >32 µg/mL
P. aeruginosa CIP105250 [4]
  MIC compounds of the invention alone: >32 µg/mL
K. pneumoniae 6299 [5]
  MIC compounds of the invention alone: >32 µg/mL
E. coli 131119
  MIC compounds of the invention alone: >32 µg/mL
K. pneumoniae BAA-1898 [6]
  MIC, combination of CAZ and compounds of the invention at 4 μg/mL: ≤0.125 µg/mL
P. aeruginosa CIP107051 [7]
  MIC, combination of CAZ and compounds of the invention at 4 μg/mL: 8 µg/mL
P. aeruginosa CIP105250 [8]
  MIC, combination of CAZ and compounds of the invention at 4 μg/mL: 8 µg/mL
K. pneumoniae 6299 [1]; MIC of ceftazidime with compound fixed at 4 μg/mL, strain 6299 (TEM-1, SHV-11, OXA-163)
  MIC, combination of CAZ and compounds of the invention at 4 μg/mL: 0.25 µg/mL
E. cloacae 260508
  MIC compounds of the invention alone: 16 µg/mL
E. cloacae P99 [9]
  MIC compounds of the invention alone: 16 µg/mL
E. coli UFR61O
  MIC compounds of the invention alone: >32 µg/mL
K. pneumoniae 160143
  MIC compounds of the invention alone: >32 µg/mL
P. aeruginosa CIP107051 [10]
  MIC compounds of the invention alone: 32 µg/mL
K. pneumoniae UFR24
  MIC compounds of the invention alone: >32 µg/mL
E. coli RGN238
  MIC compounds of the invention alone: >32 µg/mL
E. coli UFR18
  MIC compounds of the invention alone: 4 µg/mL
E. coli UFR52
  MIC compounds of the invention alone: 8 µg/mL
E. coli UFR32
  MIC compounds of the invention alone: 4 µg/mL
E. coli UFR74
  MIC compounds of the invention alone: >32 µg/mL
E. cloacae UFR85
  MIC compounds of the invention alone: >32 µg/mL
E. cloacae UFR70
  MIC compounds of the invention alone: >32 µg/mL
C. murliniae 210102
  MIC compounds of the invention alone: >32 µg/mL
K. pneumoniae 200047
  MIC compounds of the invention alone: >32 µg/mL
K. oxytoca UFR21
  MIC compounds of the invention alone: >32 µg/mL
E. cloacae UFR38
  MIC compounds of the invention alone: 2 µg/mL
K. pneumoniae UFR77
  MIC compounds of the invention alone: >32 µg/mL
E. coli 190317 [11]
  MIC compounds of the invention alone: 4 µg/mL
K. pneumoniae UFR68
  MIC compounds of the invention alone: >32 µg/mL
E. coli 190317 [12]
  MIC, combination of CAZ and compounds of the invention at 4 μg/mL: <0.25 µg/mL
